For orientation: IC50 means the concentration that gives 50% inhibition. Read a high IC50 as weaker potency.

Bridge positions count the residues as written; N and C are the ends. Square brackets hold non-standard residues; d marks the D form. Peptide text beside a SMILES is read from it. * marks the point of attachment. ξ: configuration not given here. Hyp = O=C(O)[C@@H]1C[C@@H](O)CN1; ξW = NC(Cc1c[nH]c2ccccc12)C(=O)O; NMeNle = CCCC[C@H](NC)C(=O)O; NH(CH2)3NMe2 = CN(C)CCCN*; NMeA = CN[C@@H](C)C(=O)O; Dap = NC[C@H](N)C(=O)O; NH(propargyl) = C#CCN*; X1 = CN(C)C1CCN(*)CC1; X10 = c1ccc(OCCN*)cc1; X8 = c1ccc(SCCN*)cc1; NHCH2cPr = C1CC1CN*; X11 = OC1CCC(N*)CC1; X2 = c1cn(CCCN*)cn1; X9 = OCCN(CCO)CCCN*; NHCH2CH2OH = OCCN*; NHAllyl = C=CCN*; NHBu = CCCCN*

For this assay, the target named is T1, PD-1-Ig binding to PD-L1-TVMV-His (PD-L1-His) (Homo sapiens, UniProt Q9NZQ7).
T1 construct: hPDL1(19-239)-TVMV-His; TVMV protease cleavage site (C); made in house; host or cells: HEK293T
T1 sequence (Q9NZQ7 with tags, fused parts or gaps): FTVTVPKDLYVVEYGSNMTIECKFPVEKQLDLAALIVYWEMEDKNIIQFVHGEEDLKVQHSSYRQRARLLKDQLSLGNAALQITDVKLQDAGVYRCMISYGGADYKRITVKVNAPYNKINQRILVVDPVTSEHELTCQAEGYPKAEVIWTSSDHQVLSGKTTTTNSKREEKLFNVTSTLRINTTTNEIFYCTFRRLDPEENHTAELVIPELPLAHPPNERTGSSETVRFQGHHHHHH
As to the kind of experiment: PD-1/PD-L1 Homogenous Time-Resolved Fluorescence (HTRF) binding assay. Conditions: PD-1-Ig (20 nM)/PD-L1-His (10 nM), range classes. The source says: Methods for Testing the Ability of Macrocyclic Peptides to Compete for the Binding of PD-1 to PD-L1 Using Homogenous Time-Resolved Fluorescence (HTRF) Binding Assays
The ability of the macrocyclic peptides of the present disclosure to bind to PD-L1 was investigated using a PD-1/PD-L1 Homogenous Time-Resolved Fluorescence (HTRF) binding assay.
Homogenous Time-Resolved Fluorescence (HTRF) Assays of Binding of Soluble PD-1 to Soluble PD-L1. Soluble PD-1 and soluble PD-L1 refers to proteins with carboxyl-end truncations that remove the transmembrane-spanning regions and are fused to heterologous sequences, specifically the Fc portion of the human immunoglobuling G sequence (Ig) or the hexahistidine epitope tag (His). All binding studies were performed in an HTRF assay buffer consisting of dPBS supplemented with 0.1% (w/v) bovine serum albumin and 0.05% (v/v) Tween-20. For the PD-1-Ig/PD-L1-His binding assay, inhibitors were pre-incubated with PD-L1-His (10 nM final) for 15 m in 4 μl of assay buffer, followed by addition of PD-1-Ig (20 nM final) in 1 μl of assay buffer and further incubation for 15 m. PD-L1 fusion proteins from either human, cynomologous macaques, mouse, or other species were used. HTRF detection was achieved using europium crypate-labeled anti-Ig monoclonal antibody (1 nM final) and allophycocyanin (APC) labeled anti-His monoclonal antibody (20 nM final). Antibodies were diluted in HTRF detection buffer and 5 μl was dispensed on top of binding reaction. The reaction was allowed to equilibrate for 30 minutes and signal (665 nm/620 nm ratio) was obtained using an EnVision fluorometer. Additional binding assays were established between PD-1-Ig/PD-L2-His (20 and 5 nM, respectively), CD80-His/PD-L1-Ig (100 and 10 nM, respectively) and CD80-His/CTLA4-Ig (10 and 5 nM, respectively). Binding/competition studies between biotinylated Compound No. 71 and human PD-L1-His were performed as follows. Macrocyclic peptide inhibitors were pre-incubated with PD-L1-His (10 nM final) for 60 minutes in 4 μl of assay buffer followed by addition of biotinylated Compound No. 71 (0.5 nM final) in 1 μl of assay buffer. Binding was allowed to equilibrate for 30 minutes followed by addition of europium crypated labeled Streptavidin (2.5 pM final) and APC-labeled anti-His (20 nM final) in 5 μl of HTRF buffer. The reaction was allowed to equilibrate for 30 m and signal (665 nm/620 nm ratio) was obtained using an EnVision fluorometer.
Recombinant Proteins. Carboxyl-truncated human PD-1 (amino acids 25-167) with a C-terminal human Ig epitope tag [hPD-1 (25-167)-3S-IG] and human PD-L1 (amino acids 18-239) with a C-terminal His epitope tag [hPD-L1(19-239)-tobacco vein mottling virus protease cleavage site (TVMV)-His] were expressed in HEK293T cells and purified sequentially by recombinant Protein A affinity chromatography and size exclusion chromatography. Human PD-L2-His (Sino Biologicals), CD80-His (Sino Biologicals), CTLA4-Ig (RnD Systems) were all obtained through commercial sources.
In general terms: In TR-FRET formats the signal depends on donor and acceptor labels being close together.
`CCCC[C@H]1C(=O)N(C)[C@@H](CCCC)C(=O)N[C@@H](CC(C)C)C(=O)N[C@H](C(=O)NCC(=O)NCCO)CSCC(=O)N[C@@H](Cc2ccc(O)cc2)C(=O)N(C)[C@@H](C)C(=O)N[C@@H](CC(N)=O)C(=O)N2CCC[C@H]2C(=O)N[C@@H](CN)C(=O)N[C@@H](CC(C)C)C(=O)N2C[C@H](O)C[C@H]2C(=O)N[C@@H](Cc2c[nH]c3ccccc23)C(=O)NCC(=O)NC(Cc2c[nH]c3ccccc23)C(=O)N1C` (stereo partly drawn) [Example 13095] ({CH2CO}-Y[NMeA]NP[Dap]L[Hyp]WG[ξW][NMeNle][NMeNle]LCG-NHCH2CH2OH; thioether N-14) showed an IC50 of 0.01 to 0.06 µM. `C#CCNC(=O)CNC(=O)[C@@H]1CSCC(=O)N[C@@H](Cc2ccc(O)cc2)C(=O)N(C)[C@@H](C)C(=O)N[C@@H](CC(N)=O)C(=O)N2CCC[C@H]2C(=O)N[C@@H](CN)C(=O)N[C@@H](CC(C)C)C(=O)N2C[C@H](O)C[C@H]2C(=O)N[C@@H](Cc2c[nH]c3ccccc23)C(=O)NCC(=O)NC(Cc2c[nH]c3ccccc23)C(=O)N(C)[C@@H](CCCC)C(=O)N(C)[C@@H](CCCC)C(=O)N[C@@H](CC(C)C)C(=O)N1` (stereo partly drawn) [Example 13096] ({CH2CO}-Y[NMeA]NP[Dap]L[Hyp]WG[ξW][NMeNle][NMeNle]LCG-{NH(propargyl)}; thioether N-14) returned an IC50 of 0.01 to 0.06 µM. Under `C=CCNC(=O)CNC(=O)[C@@H]1CSCC(=O)N[C@@H](Cc2ccc(O)cc2)C(=O)N(C)[C@@H](C)C(=O)N[C@@H](CC(N)=O)C(=O)N2CCC[C@H]2C(=O)N[C@@H](CN)C(=O)N[C@@H](CC(C)C)C(=O)N2C[C@H](O)C[C@H]2C(=O)N[C@@H](Cc2c[nH]c3ccccc23)C(=O)NCC(=O)NC(Cc2c[nH]c3ccccc23)C(=O)N(C)[C@@H](CCCC)C(=O)N(C)[C@@H](CCCC)C(=O)N[C@@H](CC(C)C)C(=O)N1` (stereo partly drawn) [Example 13097] ({CH2CO}-Y[NMeA]NP[Dap]L[Hyp]WG[ξW][NMeNle][NMeNle]LCG-NHAllyl; thioether N-14) stands 0.01 to 0.06 µM; under `CCCC[C@H]1C(=O)N(C)[C@@H](CCCC)C(=O)N[C@@H](CC(C)C)C(=O)N[C@H](C(=O)NCC(=O)NCCCN(C)C)CSCC(=O)N[C@@H](Cc2ccc(O)cc2)C(=O)N(C)[C@@H](C)C(=O)N[C@@H](CC(N)=O)C(=O)N2CCC[C@H]2C(=O)N[C@@H](CN)C(=O)N[C@@H](CC(C)C)C(=O)N2C[C@H](O)C[C@H]2C(=O)N[C@@H](Cc2c[nH]c3ccccc23)C(=O)NCC(=O)NC(Cc2c[nH]c3ccccc23)C(=O)N1C` (stereo partly drawn) [Example 13098] ({CH2CO}-Y[NMeA]NP[Dap]L[Hyp]WG[ξW][NMeNle][NMeNle]LCG-{NH(CH2)3NMe2}; thioether N-14), 0.01 to 0.06 µM; under `CCCC[C@H]1C(=O)N(C)[C@@H](CCCC)C(=O)N[C@@H](CC(C)C)C(=O)N[C@H](C(=O)NCC(=O)NCCCn2ccnc2)CSCC(=O)N[C@@H](Cc2ccc(O)cc2)C(=O)N(C)[C@@H](C)C(=O)N[C@@H](CC(N)=O)C(=O)N2CCC[C@H]2C(=O)N[C@@H](CN)C(=O)N[C@@H](CC(C)C)C(=O)N2C[C@H](O)C[C@H]2C(=O)N[C@@H](Cc2c[nH]c3ccccc23)C(=O)NCC(=O)NC(Cc2c[nH]c3ccccc23)C(=O)N1C` (stereo partly drawn) [Example 13099] ({CH2CO}-Y[NMeA]NP[Dap]L[Hyp]WG[ξW][NMeNle][NMeNle]LCG-X2; thioether N-14), 0.01 to 0.06 µM. As to `CCCCNC(=O)CNC(=O)[C@@H]1CSCC(=O)N[C@@H](Cc2ccc(O)cc2)C(=O)N(C)[C@@H](C)C(=O)N[C@@H](CC(N)=O)C(=O)N2CCC[C@H]2C(=O)N[C@@H](CN)C(=O)N[C@@H](CC(C)C)C(=O)N2C[C@H](O)C[C@H]2C(=O)N[C@@H](Cc2c[nH]c3ccccc23)C(=O)NCC(=O)NC(Cc2c[nH]c3ccccc23)C(=O)N(C)[C@@H](CCCC)C(=O)N(C)[C@@H](CCCC)C(=O)N[C@@H](CC(C)C)C(=O)N1` (stereo partly drawn) [Example 13100] ({CH2CO}-Y[NMeA]NP[Dap]L[Hyp]WG[ξW][NMeNle][NMeNle]LCG-NHBu; thioether N-14), the IC50 lay within 0.01 to 0.06 µM. For `CCCC[C@H]1C(=O)N(C)[C@@H](CCCC)C(=O)N[C@@H](CC(C)C)C(=O)N[C@H](C(=O)NCC(=O)NCCSc2ccccc2)CSCC(=O)N[C@@H](Cc2ccc(O)cc2)C(=O)N(C)[C@@H](C)C(=O)N[C@@H](CC(N)=O)C(=O)N2CCC[C@H]2C(=O)N[C@@H](CN)C(=O)N[C@@H](CC(C)C)C(=O)N2C[C@H](O)C[C@H]2C(=O)N[C@@H](Cc2c[nH]c3ccccc23)C(=O)NCC(=O)NC(Cc2c[nH]c3ccccc23)C(=O)N1C` (stereo partly drawn) [Example 13101] ({CH2CO}-Y[NMeA]NP[Dap]L[Hyp]WG[ξW][NMeNle][NMeNle]LCG-X8; thioether N-14), the IC50 lay in the range of 0.01 to 0.06 µM. Under `CCCC[C@H]1C(=O)N(C)[C@@H](CCCC)C(=O)N[C@@H](CC(C)C)C(=O)N[C@H](C(=O)NCC(=O)N2CCC(N(C)C)CC2)CSCC(=O)N[C@@H](Cc2ccc(O)cc2)C(=O)N(C)[C@@H](C)C(=O)N[C@@H](CC(N)=O)C(=O)N2CCC[C@H]2C(=O)N[C@@H](CN)C(=O)N[C@@H](CC(C)C)C(=O)N2C[C@H](O)C[C@H]2C(=O)N[C@@H](Cc2c[nH]c3ccccc23)C(=O)NCC(=O)NC(Cc2c[nH]c3ccccc23)C(=O)N1C` (stereo partly drawn) [Example 13103] ({CH2CO}-Y[NMeA]NP[Dap]L[Hyp]WG[ξW][NMeNle][NMeNle]LCG-X1; thioether N-14) stands 0.01 to 0.06 µM.

Turning to `CCCC[C@H]1C(=O)N(C)[C@@H](CCCC)C(=O)N[C@@H](CC(C)C)C(=O)N[C@H](C(=O)NCC(=O)NCC2CC2)CSCC(=O)N[C@@H](Cc2ccc(O)cc2)C(=O)N(C)[C@@H](C)C(=O)N[C@@H](CC(N)=O)C(=O)N2CCC[C@H]2C(=O)N[C@@H](CN)C(=O)N[C@@H](CC(C)C)C(=O)N2C[C@H](O)C[C@H]2C(=O)N[C@@H](Cc2c[nH]c3ccccc23)C(=O)NCC(=O)NC(Cc2c[nH]c3ccccc23)C(=O)N1C` (stereo partly drawn) [Example 13104] ({CH2CO}-Y[NMeA]NP[Dap]L[Hyp]WG[ξW][NMeNle][NMeNle]LCG-NHCH2cPr; thioether N-14), the IC50 was 0.01 to 0.06 µM. Molecule `CCCC[C@H]1C(=O)N(C)[C@@H](CCCC)C(=O)N[C@@H](CC(C)C)C(=O)N[C@H](C(=O)NCC(=O)NC2CCC(O)CC2)CSCC(=O)N[C@@H](Cc2ccc(O)cc2)C(=O)N(C)[C@@H](C)C(=O)N[C@@H](CC(N)=O)C(=O)N2CCC[C@H]2C(=O)N[C@@H](CN)C(=O)N[C@@H](CC(C)C)C(=O)N2C[C@H](O)C[C@H]2C(=O)N[C@@H](Cc2c[nH]c3ccccc23)C(=O)NCC(=O)NC(Cc2c[nH]c3ccccc23)C(=O)N1C` (stereo partly drawn) [Example 13106] ({CH2CO}-Y[NMeA]NP[Dap]L[Hyp]WG[ξW][NMeNle][NMeNle]LCG-X11; thioether N-14) yielded an IC50 of 0.01 to 0.06 µM.

`CCCC[C@H]1C(=O)N(C)[C@@H](CCCC)C(=O)N[C@@H](CC(C)C)C(=O)N[C@H](C(=O)NCC(=O)NCCCN(CCO)CCO)CSCC(=O)N[C@@H](Cc2ccc(O)cc2)C(=O)N(C)[C@@H](C)C(=O)N[C@@H](CC(N)=O)C(=O)N2CCC[C@H]2C(=O)N[C@@H](CN)C(=O)N[C@@H](CC(C)C)C(=O)N2C[C@H](O)C[C@H]2C(=O)N[C@@H](Cc2c[nH]c3ccccc23)C(=O)NCC(=O)N[C@@H](Cc2c[nH]c3ccccc23)C(=O)N1C` [Example 13107] ({CH2CO}-Y[NMeA]NP[Dap]L[Hyp]WGW[NMeNle][NMeNle]LCG-X9; thioether N-14) registered a concentration for half-maximal inhibition (IC50) of 0.01 to 0.06 µM. Then `CCCC[C@H]1C(=O)N(C)[C@@H](CCCC)C(=O)N[C@@H](CC(C)C)C(=O)N[C@H](C(=O)NCC(=O)NCCOc2ccccc2)CSCC(=O)N[C@@H](Cc2ccc(O)cc2)C(=O)N(C)[C@@H](C)C(=O)N[C@@H](CC(N)=O)C(=O)N2CCC[C@H]2C(=O)N[C@@H](CN)C(=O)N[C@@H](CC(C)C)C(=O)N2C[C@H](O)C[C@H]2C(=O)N[C@@H](Cc2c[nH]c3ccccc23)C(=O)NCC(=O)N[C@@H](Cc2c[nH]c3ccccc23)C(=O)N1C` [Example 13108] ({CH2CO}-Y[NMeA]NP[Dap]L[Hyp]WGW[NMeNle][NMeNle]LCG-X10; thioether N-14), with 0.01 to 0.06 µM.

The values above are taken from US9809625B2, “Immunomodulators” (BRISTOL-MYERS SQUIBB COMPANY, priority 2015, dated 2017).
